Experimental findings from ChEMBL document CHEMBL4665641, “Lead optimization and efficacy evaluation of quinazoline-based BET family inhibitors for potential treatment of cancer and inflammatory diseases” (Bioorg Med Chem Lett, 2019) are described below.

Molecules are shown by their SMILES.

Data set [1] is described as follows: Oral bioavailability in CD-1 mouse at 10 mg/kg. Type of data set: ADME, organism-based. As to conditions: mouse, in vivo, 10 mg/kg.
Data set [2] is described as follows: Half life in CD-1 mouse at 10 mg/kg, po. As to conditions: in vivo. The format is ADME, organism-based.
A short description of data set [3]: Cmax in CD-1 mouse at 2 mg/kg, iv measured after 5 mins. Type of data set: ADME, organism-based. On the set-up: route intravenous, dose 2 mg/kg. As to conditions: mouse, in vivo, 5 min.
A short description of data set [4]: Volume of distribution at steady state in CD-1 mouse at 2 mg/kg, iv. Type of data set: ADME, organism-based. The following applies: in vivo, read-out: Vdss.
The next data set has as its target CYP3A4 (Homo sapiens, UniProt P08684). The data set can be described thus: Inhibition of human CYP3A4 at 10 uM using midazolam as substrate relative to control. Type of data set: ADME. The following applies: probe midazolam.
Another data set deals with CYP2D6 (Homo sapiens, UniProt P10635). The data set can be described thus: Inhibition of human CYP2D6 at 10 uM relative to control. The format is ADME.
Sequence of CYP2D6 (P10635 whole entry): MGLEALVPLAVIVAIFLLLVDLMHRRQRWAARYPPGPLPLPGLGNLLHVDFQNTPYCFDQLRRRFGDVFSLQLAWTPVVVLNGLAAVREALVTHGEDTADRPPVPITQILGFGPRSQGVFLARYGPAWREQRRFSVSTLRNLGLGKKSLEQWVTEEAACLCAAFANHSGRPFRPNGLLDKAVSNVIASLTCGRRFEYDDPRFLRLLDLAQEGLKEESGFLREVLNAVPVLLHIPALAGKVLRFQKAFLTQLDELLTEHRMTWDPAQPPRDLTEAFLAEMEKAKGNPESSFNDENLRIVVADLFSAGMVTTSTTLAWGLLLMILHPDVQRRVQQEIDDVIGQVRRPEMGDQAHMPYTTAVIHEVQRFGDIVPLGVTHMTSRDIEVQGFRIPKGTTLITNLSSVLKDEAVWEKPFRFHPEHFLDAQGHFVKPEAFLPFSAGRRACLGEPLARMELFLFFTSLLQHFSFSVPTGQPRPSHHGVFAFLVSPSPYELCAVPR
For a further data set, the system named is Mus musculus. The data set can be described thus: Antiinflammatory activity in collagen/complete freund's adjuvant-induced arthritis DBA/1 mouse model assessed as IP-10 level in rear right paw at 50 mg/kg, po administered via gavage starting from day 21 to day 41 post collagen/CFA challenge and measured on day 42 measured per mg protein (reference value: 6.23 pg). The following applies: time 21 day. The format is functional.

In data set [5] the target is Bromodomain-containing protein 2 (Homo sapiens, UniProt P25440). Nature of the data set: Binding affinity to human partial length BRD2 (BD1,2) (K71 to D455 residues) expressed in bacterial expression system by BROMOscan assay.
Sequence of Bromodomain-containing protein 2 (P25440 whole entry, the tested form may be a part): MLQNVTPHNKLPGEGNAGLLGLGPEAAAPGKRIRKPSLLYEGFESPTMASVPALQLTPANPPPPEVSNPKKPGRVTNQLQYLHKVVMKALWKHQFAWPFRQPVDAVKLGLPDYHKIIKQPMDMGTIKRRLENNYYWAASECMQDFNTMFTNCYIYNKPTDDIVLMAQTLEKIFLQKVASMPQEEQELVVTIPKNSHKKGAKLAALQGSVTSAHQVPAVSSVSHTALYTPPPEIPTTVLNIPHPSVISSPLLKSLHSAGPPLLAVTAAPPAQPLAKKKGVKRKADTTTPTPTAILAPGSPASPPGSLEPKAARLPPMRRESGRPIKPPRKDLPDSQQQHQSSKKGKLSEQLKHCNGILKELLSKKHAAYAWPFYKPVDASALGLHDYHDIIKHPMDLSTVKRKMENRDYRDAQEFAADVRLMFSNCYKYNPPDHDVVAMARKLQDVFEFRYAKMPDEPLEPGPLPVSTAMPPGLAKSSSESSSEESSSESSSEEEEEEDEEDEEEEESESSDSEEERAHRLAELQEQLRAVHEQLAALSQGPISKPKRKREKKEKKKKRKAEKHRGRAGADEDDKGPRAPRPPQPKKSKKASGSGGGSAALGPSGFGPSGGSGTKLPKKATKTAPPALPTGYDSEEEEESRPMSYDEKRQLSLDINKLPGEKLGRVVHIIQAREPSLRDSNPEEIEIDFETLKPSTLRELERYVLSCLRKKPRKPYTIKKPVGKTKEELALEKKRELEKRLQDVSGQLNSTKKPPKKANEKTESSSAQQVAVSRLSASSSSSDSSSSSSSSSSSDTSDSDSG

Sequence of CYP3A4 (P08684 whole entry): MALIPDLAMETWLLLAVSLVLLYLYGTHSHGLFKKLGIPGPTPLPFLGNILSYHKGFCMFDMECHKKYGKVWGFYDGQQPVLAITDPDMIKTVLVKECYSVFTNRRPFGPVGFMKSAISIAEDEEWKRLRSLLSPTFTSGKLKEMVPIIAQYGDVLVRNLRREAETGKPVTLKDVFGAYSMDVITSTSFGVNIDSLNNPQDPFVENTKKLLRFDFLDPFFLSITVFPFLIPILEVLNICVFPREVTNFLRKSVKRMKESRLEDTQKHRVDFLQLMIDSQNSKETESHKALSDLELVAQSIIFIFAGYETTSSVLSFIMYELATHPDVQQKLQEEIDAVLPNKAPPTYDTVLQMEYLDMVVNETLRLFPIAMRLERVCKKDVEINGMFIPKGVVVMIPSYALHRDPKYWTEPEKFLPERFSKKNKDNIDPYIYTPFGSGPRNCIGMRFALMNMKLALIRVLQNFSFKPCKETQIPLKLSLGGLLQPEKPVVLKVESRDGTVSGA

Usually half-life stands for how long it takes for the measured level to halve. Read a high half-life as slow loss. A word on the Cmax: it is the peak of the concentration-time curve. The term inhibition denotes how much of the control response was suppressed. By Kd is commonly meant the equilibrium constant for the complex coming apart. In the case of `Cc1noc(C)c1-c1ccc2nc(-c3cnn(CC(C)(C)O)c3)nc(N3CCOC[C@@H]3c3ccccc3)c2c1`, the F in data set [1] was found to be 75%. Also, the half-life in data set [2] was 102 min. In data set [3], the highest concentration (Cmax) turned out to be 2337 ng/mL. Also, the Vd in data set [4] is 1.04 L/kg. Also, the inhibition at 10 µM on CYP3A4 and against CYP2D6 was under 50% throughout. Further, the Activity in the data set with Mus musculus amounted to 0.92 pg. In data set [5], this molecule had a dissociation constant Kd of 87 nM.
